# Data taken from patent US4675395A, “Cyclodextrin inclusion compound and process for its preparation” (Seiwa Technological Laboratories Limited, priority 1985, dated 1987).
# Columns and labels:
# [1] = background statement; cited from earlier work
# [2] = physchem; settings: water
# [3] = cited from earlier work
structure (smiles),measurement,setting,value
CC(C)c1cccc(=O)c(O)c1 [hinokitiol],bactericidal and bacteriostatic activity,[1],strong
same,solubility,[2],≤ 5 mM
same,solubility in water at 25° C.,[3],about 0.12%
